# Tested on: HSV-2 (strain 186)
# Assay: Anti-herpes activity, plaque-reduction assay in Vero cells, HSV-2 (strain 186)
# Assay type: cell-based
# Settings: Human alphaherpesvirus 2, 168 h; HSV-2 strain 186, Vero cells, 7 days at 37° C.; read-out: ID50 HSV-2 (concentration of compound causing 50% inhibition of plaque formation)
# Procedure: (§1) Anti-herpes activity was measured in a plaque-reduction assay (Lopez, C. et al., J. Antimicrob. Agents Chemother., 17, 803 (1980). Confluent monolayers of Vero cells in 6-well plates were infected with 100 plaque forming units of either HSV-1 (strain KOS) or HSV-2 (strain 186). The infected monolayers were incubated at 37° C. for 1 hour and then overlaid with maintenance medium containing 1% agarose and various concentrations of test compounds. The monolayers were incubated for a further 7 days at 37° C., after which the cells were fixed and stained, the plaques were counted, and the concentration of compound causing 50% inhibition of plaque formation was calculated.
row,IC50 [µg/mL],Compound
1,0.42,Nc1nc2c(ncn2C[C@]2(CO)C[C@H]2CO)c(=O)[nH]1 (relative stereo)
2,0.24,"Nc1nc2c(ncn2C[C@]2(CO)C[C@H]2CO)c(=O)[nH]1 [Example 20, (-)-9-[1'S,2'R-bis(hydroxymethyl)cyclopropan-1'yl]methylguanine]"
3,0.4,"Nc1nc2c(ncn2COCCO)c(=O)[nH]1 [Acyclovir, reference compound]"

# Tested on: HSV-1 (strain KOS)
# Assay: Anti-herpes activity, plaque-reduction assay in Vero cells, HSV-1 (strain KOS)
# Assay type: cell-based
# Settings: Human alphaherpesvirus 1, 168 h, 7 days at 37° C., read-out: ID50 HSV-1 (concentration of compound causing 50% inhibition of plaque formation)
# Procedure: as §1
row,Compound,IC50 [µg/mL]
1,Nc1ccn(CC2(CO)CC2CO)c(=O)n1 (stereo not shown),120
2,"Nc1nc2c(ncn2COCCO)c(=O)[nH]1 [Acyclovir, reference compound]",0.57
3,Nc1ncnc2c1ncn2CC1(CO)CC1CO (stereo not shown),47

# The remaining lines, values ahead:
row,IC50 [µg/mL],Compound
1,0.046,Nc1nc2c(ncn2C[C@]2(CO)C[C@H]2CO)c(=O)[nH]1 (relative stereo)
2,10.4,Nc1nc2c(ncn2C[C@]2(CO)C[C@@H]2CO)c(=O)[nH]1 (relative stereo)
3,0.023,"Nc1nc2c(ncn2C[C@]2(CO)C[C@H]2CO)c(=O)[nH]1 [Example 20, (-)-9-[1'S,2'R-bis(hydroxymethyl)cyclopropan-1'yl]methylguanine]"
4,34,Nc1nc(Cl)c2ncn(CC3(CO)CC3CO)c2n1 (stereo not shown)
